According to patent US12514805B2, “Composition for suppressing skin irritation or inhibiting sebum secretion” (AMOREPACIFIC CORPORATION, priority 2022, dated 2026):

Columns and labels:
sebaceous gland cells = assay: Cytotoxicity in sebaceous gland cells during the comparison of Example 5; assay type: cell-based, human; conditions: 10 μM
[1] = tested on: retinoic acid receptor (RAR); conditions: from paper of the Society of Cosmetic Scientists of Korea (2003); cited from earlier work
SREBP2 = assay: Genetic analysis of cholesterol/fatty acid transcription factors in sebaceous gland cells: SREBP2; assay type: cell-based, human; conditions: primary sebocytes, cultured 2 days, RT-PCR, FIG. 4
Protocol: (§1) Primary sebocyte and human sebocyte complete medium were purchased from Celprogen and used. The sebaceous gland cells were dispensed in a 60 mm cell culture dish at a density of 1.25×10^4 cells/dish, and then cultured in a CO2 incubator under the condition of 37° C. and 5% CO2 at about 80% confluency. Thereafter, 0 μM, 1 μM, and 10 μM of the compound of Chemical Formula 1 (Seletinoid G) were treated with the cells, respectively, and the cells were cultured for 2 days, and then changes in transcription factors related to sebum biosynthesis were confirmed.
(§2) The cells were treated with the material of Example 3, and then, cultured for 2 days, and then, the cell growth medium was removed. After that, 1 ml of Trizol (Invitrogen) was added to the cells, and RNA was isolated from the cells according to the RNA isolation method (Invitrogen). The RNA was quantified using a UV detector (HEWLETT PACKARD) at 260 nm and subject to RT-PCR (reverse transcription-polymerase chain reaction).
(§3) Taqman probes were used for genetic analysis of SREBP1(Hs02561944_s1), SREBP2(Hs01081781_m1), fatty acid synthase(FAS: Hs01005622_m1), Acetyl-CoA Carboxylase(ACACA: Hs01046047_m1) for each sample, and normalization was performed with respect to the complementary gene RPL13A (Hs04194366_g1), and the result is shown in FIG. 4.

[2] = tested on: SREBP1, SPERBP2, FAS, and ACACA; assay: Comparison of retinoic acid signal transduction pathway modifiers: sebum-related gene expression in sebaceous gland cells; assay type: cell-based, human; conditions: for effect on sebum-related gene expression (SREBP1, SPERBP2, FAS, ACACA): sebaceous gland cells treated with 1 μM and 10 μM of each material, FIG. 5
Protocol: Primary sebocyte and human sebocyte complete medium were purchased from Celprogen and used.
After that, 1 ml of Trizol (Invitrogen) was added to the cells, and RNA was isolated from the cells according to the RNA isolation method (Invitrogen). The RNA was quantified using a UV detector (HEWLETT PACKARD) at 260 nm and subject to RT-PCR (reverse transcription-polymerase chain reaction).
as §3

SREBP1 = assay: Genetic analysis of cholesterol/fatty acid transcription factors in sebaceous gland cells: SREBP1; assay type: cell-based, human; conditions: primary sebocytes, cultured 2 days, RT-PCR, FIG. 4
Protocol: as §1, §2, §3

[3] = tested on: fatty acid synthase (FAS); assay: Genetic analysis of cholesterol/fatty acid transcription factors in sebaceous gland cells: FAS; assay type: cell-based, human; conditions: primary sebocytes, cultured 2 days, RT-PCR, FIG. 4
Protocol: as §1, §2, §3

[4] = tested on: Acetyl-CoA Carboxylase (ACACA); assay: Genetic analysis of cholesterol/fatty acid transcription factors in sebaceous gland cells: ACACA; assay type: cell-based, human; conditions: primary sebocytes, cultured 2 days, RT-PCR, FIG. 4
Protocol: as §1, §2, §3

Compound: O=C(/C=C/c1ccc2c(c1)OCO2)OCc1cc(=O)c(O)co1 [Seletinoid G, (5-hydroxy-4-oxopyran-2-yl)methyl (E)-3-(1,3-benzodioxol-5-yl)prop-2-enoate]
- cytotoxicity (sebaceous gland cells): without causing cytotoxicity
- binding to retinoic acid receptor (specificity) [1]: specifically binds to RARγ
- expression level of SPERBP2 reduced by (SREBP2; 1 μM): about 40%
- expression level of SPERBP2 reduced by (SREBP2; 10 μM): ~55%
- effect on sebum-related gene expression (SREBP1, SPERBP2, FAS, ACACA) [2]: effect of suppressing sebum-related gene expression
- reduction of the expression level of the transcription factors (SREBP1a, SPERBP2, FAS, ACACA) ([2]; sebaceous gland cells, 10 μM): more than 60%
- expression level of SREBP1 reduced by (SREBP1; 1 μM): about 40%
- expression level of SREBP1 reduced by (SREBP1; 10 μM): about 60%
- expression level of FAS reduced by ([3]; 1 μM): ~30%
- expression level of FAS reduced by ([3]; 10 μM): ~45%
- expression level of ACACA reduced by ([4]; 1 μM): ~30%
- expression level of ACACA reduced by ([4]; 10 μM): about 60%

Compound: CC1=C(/C=C/C(C)=C/C=C/C(C)=C/C(=O)Nc2ccc(O)cc2)C(C)(C)CCC1 [fenretinide, reference compound]
- effect on sebum-related gene expression (SREBP1, SPERBP2, FAS, ACACA) [2]: effect of suppressing sebum-related gene expression

Compound: Clc1cccc(C(c2ccc3[nH]cnc3c2)n2ccnc2)c1 (stereo not drawn) [liarozole, reference compound]
- effect on sebum-related gene expression (SREBP1, SPERBP2, FAS, ACACA) [2]: did not show a significant difference

Compound: CC1=C(/C=C/C(C)=C/C=C/C(C)=C/C(=O)O)C(C)(C)CCC1 [retinoic acid, reference compound]
- cytotoxicity (sebaceous gland cells): some cytotoxicity
